Source: patent US20230172914A1, “BIOMARKER-BASED THERAPEUTIC COMPOSITION” (WELLMARKER BIO CO., LTD., priority 2019, published 2023)

Tests used:
[1] = tested on: Colo320HSR cell line overexpressing RON mutants (mt #1: Δ160, mt #2: Δ155); assay: Drug efficacy after overexpression of RON mutants in Colo320HSR (trypan blue, Western blotting); type: cell-based
Protocol: Efficacy analysis for RON mutants was performed by overexpressing RON mutants, and then identifying cell death-inducing ability through Western blotting. Colo320HSR cell line was seeded onto a 100-mm plate, and then a RON mutant #1 (Δ160)- or RON mutant #2 (Δ155)-expressing vector was introduced into the cell line using a transfection solution (Polyplus). After 24 hours, the cell line was seeded onto a 60-mm plate at 2×10^5 cells. Then, after 24 hours, while performing medium exchange, the cells were subjected to treatment with Example 18 at respective concentrations (1 μM, 5 μM) for 48 hours.
After 48 hours, the cells and cell suspensions were collected (1,500 rpm, 3 minutes), and live cells and dead cells were quantitated (n=2) through trypan blue exclusion assay. Subsequently, the remaining cells were collected and lysed by adding RIPA Lysis Buffer (T&I) to the respective cells for the purpose of identifying, with Western blotting, inhibitory capacity on active RON and cell death-inducing ability. Then, proteins were quantified by BCA kit (Pierce).
Subsequently, the proteins were reacted with primary antibodies (active RON, cleaved caspase-3, beta actin), which were diluted 1:1,000 in 5% non-fat skim milk-TBST solution, at 4° C. for 24 hours or 48 hours. Then, washing with TBST was performed three times. The resultant was reacted with anti-rabbit and anti-mouse IgG conjugated horseradish peroxidase (HRP) secondary antibodies, which were diluted at 1:1,000, at room temperature for 2 hours. Then, washing with TBST was washed three times. Subsequently, the membrane was treated with the ECL solution (GE Healthcare), and developed by exposure to an X-ray film. Then, the bands were checked.

[2] = tested on: colon cancer patient-derived cancer tissue (RON mutant: Δ160); assay: Efficacy in animal model transplanted with colon cancer patient tissue, 50 mpk; type: in vivo, BALB/c nude mice; settings: 50 mpk oral, daily for 4 weeks
Protocol: 5-week-old female BALB/c nude mice were purchased and acclimatized for 1 week. Then, colon cancer patient-derived cancer tissue was transplanted into the right dorsal side of the mice. Example 18 was orally administered when the tumor reached a size of about 100 mm^3. The drug was administered once a day for 4 weeks, and tumor size and body weight were measured twice a week to perform comparative analysis. After completion of the drug administration, the experimental animals were euthanized, and then the tumors were extracted and weighed to perform comparative analysis.
As a result, it was identifiable that tumor growth is inhibited in a case where Example 18 is administered to an animal model (RON mutant: Δ160) into which tumor cells in colon cancer patients have been transplanted. The drug was orally administered on a daily basis, and the dose used was 50 mpk. As a result of drug administration for 4 weeks, it was identified that tumor growth is inhibited by 80% or more (FIG. 18). In addition, after completion of the drug administration, the tumor tissues were extracted and weighed to perform comparative analysis. […] The lower pictures of FIG. 19 show tumors extracted from representative individuals of the respective groups.

[3] = tested on: colon cancer patient-derived cell line expressing active RON; assay: Cell death in colon cancer patient-derived cell line expressing active RON (immunofluorescence); type: cell-based, human; settings: 5 ug, 48 hours, KRAS normal
Protocol: (§1) The following condition and methods were used to perform the present experiment. […] Then, the respective cell lines were seeded at 5×10^5 cells onto 24-well plates, in which one sterile 12 mmΦ microscope cover glass was placed on each well, and incubated. The respective colon cancer patient-derived cell lines under incubation were subjected to treatment with Example 18 and Comparative Example 1, respectively, at 5 ug, and then incubated for 48 hours. Each incubated plate was washed twice with PBS, and then fixed with 100% Me-OH at room temperature for 5 minutes. The Me-OH was removed, and washing with PBS was performed three times for 5 minutes each. Then, 100 ul of 0.1% Triton X-100 (in PBS) was dispensed thereinto and permeabilization was allowed to occur for 5 minutes. Washing with PBS was performed three times for 5 minutes each, and then PBS was added thereto to prevent drying. Parafilm was attached to the 24-well plate cover, and then PBS-T (PBS+0.1% Tween 20) containing 3% BSA was dropped by 20 μl onto the parafilm. […] Then, washing with PBS-T (PBS+0.1% Tween 20) was performed twice, and a fluorescence microscope was used to identify the staining. […] Then, the cover glass was placed thereon, and a fluorescence microscope was used to take a fluorescence image.

KM12C cell line tumor = assay: Effective dose concentration in animal model transplanted with KM12C; type: in vivo, BALB/c nude mice; settings: once a day for 2 weeks
Protocol: 5-Week-old female BALB/c nude mice were purchased and acclimatized for 1 week. Then, human-derived colon cancer cell line KM12C (1.5×10^6 cells/mice) was diluted in PBS, and injected subcutaneously (100 μl) into the right dorsal side of the mice. Example 18 was orally administered at respective doses when the tumor reached a size of about 100 mm^3. The drug was administered once a day for 2 weeks, and tumor size and body weight were measured twice a week to perform comparative analysis. After completion of the drug administration, the experimental animals were euthanized, and then the tumors were extracted and weighed to perform comparative analysis.

[4] = tested on: colon cancer patient-derived cell line in which RON is not expressed; assay: Cell death in colon cancer patient-derived cell line, active RON negative (immunofluorescence); type: cell-based, human; settings: 5 ug, 48 hours, KRAS normal
Protocol: as §1

[5] = RON mutant-transfected Colo320HSR

CCOc1ccn(-c2ccc(F)cc2)c(=O)c1C(=O)Nc1ccc(Oc2ccnc3cc(-c4ccc(CN5CCOCC5)cn4)sc23)c(F)c1.Cl [Example 18, 4-ethoxy-N-[3-fluoro-4-({2-[5-(morpholinomethyl)pyridin-2-yl]thieno[3,2-b]pyridine-7-yl}oxy)phenyl]-1-(4-fluorophenyl)-2-oxo-1,2-dihydropyridine-3-carboxamide hydrochloride]
cell death (trypan blue exclusion assay) ([1]; 1 μM, 5 μM, 48 hours, group transfected with RON mutant): cell death induction at the respective concentrations is observed
active RON expression level (Western blotting) [1, 5]: decreased expression level
cleaved caspase 3 expression level (Western blotting) [1, 5]: increased expression level
tumor growth inhibition (extracted tumor weight) compared with the vehicle [2]: about 83%
tumor growth inhibition (tumor size) [2]: ≥ 80%
cell death-inducing efficacy (cleaved caspase 3 immunofluorescence) [3]: exhibits cell death-inducing efficacy
tumor growth (KM12C cell line tumor; oral at respective doses): inhibited in a concentration-dependent manner
effective dose concentration (KM12C cell line tumor; oral): 5.214 mpk
reactivity to drug treatment (cell death) [4]: no reactivity
